Structures are written as SMILES. Like-named read-outs stand apart in the source and are kept apart here.

Common to all, as to test: malachite green phosphate release assay, fit to nonlinear noncompetitive inhibition
Holding throughout (type): biochemical

In test [1] the target is T1, E. coli FBPase (fructose-1,6-bisphosphatase) (Escherichia coli, UniProt P0A993, K104Q/R132I).
T1 construct: gene fbp; full-length fbp in pET101/D-TOPO, reverse primer without stop (C-terminal vector tag with polyhistidine, no cleavage told), expressed in E. coli BL21 (DE3), Ni-NTA purified

Test [2] addresses T2, E. coli FBPase (fructose-1,6-bisphosphatase) (Escherichia coli, UniProt P0A993, K104Q).
T2 construct: gene fbp; full-length fbp in pET101/D-TOPO, reverse primer without stop (C-terminal vector tag with polyhistidine, no cleavage told), expressed in E. coli BL21 (DE3), Ni-NTA purified

Test [3] concerns the target T3, E. coli FBPase (fructose-1,6-bisphosphatase) (Escherichia coli, UniProt P0A993).
T3 construct: gene fbp; full-length fbp in pET101/D-TOPO, reverse primer without stop (C-terminal vector tag with polyhistidine, no cleavage told), expressed in E. coli BL21 (DE3), Ni-NTA purified
T3 sequence (P0A993 1-332): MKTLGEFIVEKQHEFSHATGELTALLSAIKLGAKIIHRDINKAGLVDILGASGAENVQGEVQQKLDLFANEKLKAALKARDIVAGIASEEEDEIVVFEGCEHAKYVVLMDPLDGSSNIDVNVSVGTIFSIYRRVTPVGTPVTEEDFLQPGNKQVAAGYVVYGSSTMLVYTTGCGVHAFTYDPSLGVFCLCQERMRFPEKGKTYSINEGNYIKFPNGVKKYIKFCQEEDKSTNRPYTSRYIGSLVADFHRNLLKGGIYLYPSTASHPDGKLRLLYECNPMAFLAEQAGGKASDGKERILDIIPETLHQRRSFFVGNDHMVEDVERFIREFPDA
The text has this:
malachite green phosphate release assay, fit to nonlinear noncompetitive inhibition on E. coli FBPase (fructose-1,6-bisphosphatase) | Comparison of inhibition constants of wild-type and mutant FBPase by the allosteric inhibitor, AMP. | Comparison of inhibition constant of wild-type and mutant FBPase by the allosteric inhibitor, Glc-6-P.

Test [4] has as its target T4, E. coli FBPase (fructose-1,6-bisphosphatase) (Escherichia coli, UniProt P0A993, K104Q/K218Q/R132I/Y210F).
T4 construct: gene fbp; full-length fbp in pET101/D-TOPO, reverse primer without stop (C-terminal vector tag with polyhistidine, no cleavage told), expressed in E. coli BL21 (DE3), Ni-NTA purified

The target of test [5] is T5, E. coli FBPase (fructose-1,6-bisphosphatase) (Escherichia coli, UniProt P0A993, R132I).
T5 construct: gene fbp; full-length fbp in pET101/D-TOPO, reverse primer without stop (C-terminal vector tag with polyhistidine, no cleavage told), expressed in E. coli BL21 (DE3), Ni-NTA purified

The target in test [6] is T6, E. coli FBPase (fructose-1,6-bisphosphatase) (Escherichia coli, UniProt P0A993, Y210F).
T6 construct: gene fbp; full-length fbp in pET101/D-TOPO, reverse primer without stop (C-terminal vector tag with polyhistidine, no cleavage told), expressed in E. coli BL21 (DE3), Ni-NTA purified
The note with it: allosteric Glc-6-P site, with respect to FBP, Mg2+, pH 7.5, 25 C.

Test [7] concerns the target T7, E. coli FBPase (fructose-1,6-bisphosphatase) (Escherichia coli, UniProt P0A993, K218Q).
T7 construct: gene fbp; full-length fbp in pET101/D-TOPO, reverse primer without stop (C-terminal vector tag with polyhistidine, no cleavage told), expressed in E. coli BL21 (DE3), Ni-NTA purified
The settings on record: allosteric Glc-6-P site, with respect to FBP, Mg2+, pH 7.5, 25 C.

The target in test [8] is T8, E. coli FBPase (fructose-1,6-bisphosphatase) (Escherichia coli, UniProt P0A993, K104Q/R132I/Y210F/K218Q).
T8 construct: gene fbp; full-length fbp in pET101/D-TOPO, reverse primer without stop (C-terminal vector tag with polyhistidine, no cleavage told), expressed in E. coli BL21 (DE3), Ni-NTA purified
The note with it: allosteric Glc-6-P site; with respect to FBP; noncompetitive; Mg2+; pH 7.5, 25 C.

The target in test [9] is T9, E. coli FBPase (fructose-1,6-bisphosphatase) (Escherichia coli, UniProt P0A993, Y210F/K218Q).
T9 construct: gene fbp; full-length fbp in pET101/D-TOPO, reverse primer without stop (C-terminal vector tag with polyhistidine, no cleavage told), expressed in E. coli BL21 (DE3), Ni-NTA purified
The note with it: allosteric Glc-6-P site, with respect to FBP, Mg2+, pH 7.5, 25 C.

T6 sequence (P0A993 whole entry Y210F): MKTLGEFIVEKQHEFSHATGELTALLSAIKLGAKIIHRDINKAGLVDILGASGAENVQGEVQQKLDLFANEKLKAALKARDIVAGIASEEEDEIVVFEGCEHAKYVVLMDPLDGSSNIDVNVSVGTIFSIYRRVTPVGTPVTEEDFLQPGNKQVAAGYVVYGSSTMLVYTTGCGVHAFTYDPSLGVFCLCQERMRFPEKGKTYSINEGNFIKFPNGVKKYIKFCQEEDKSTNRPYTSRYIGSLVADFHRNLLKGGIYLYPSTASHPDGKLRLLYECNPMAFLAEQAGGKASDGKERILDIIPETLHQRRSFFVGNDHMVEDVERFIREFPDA
T7 sequence (P0A993 whole entry K218Q): as the sequence (P0A993 whole entry Y210F) above, with F210Y, K218Q counted along it
T4 sequence (P0A993 whole entry K104Q/R132I/Y210F/K218Q): as the sequence (P0A993 whole entry Y210F) above, with K104Q, R132I, K218Q counted along it
T8 sequence (P0A993 whole entry K104Q/R132I/Y210F/K218Q): as the sequence (P0A993 whole entry Y210F) above, with K104Q, R132I, K218Q counted along it
T1 sequence (P0A993 whole entry K104Q/R132I): as the sequence (P0A993 whole entry Y210F) above, with K104Q, R132I, F210Y counted along it
T9 sequence (P0A993 whole entry Y210F/K218Q): as the sequence (P0A993 whole entry Y210F) above, with K218Q counted along it
T5 sequence (P0A993 whole entry R132I): as the sequence (P0A993 whole entry Y210F) above, with R132I, F210Y counted along it
T2 sequence (P0A993 whole entry K104Q): as the sequence (P0A993 whole entry Y210F) above, with K104Q, F210Y counted along it

For the molecule `Nc1ncnc2c1ncn2[C@@H]1O[C@H](COP(=O)(O)O)[C@@H](O)[C@H]1O` [AMP], the inhibitory constant (Ki) (commonly the equilibrium dissociation constant of an inhibitor or competing ligand from its target) in test [1] is 1.46 ± 0.215 mM; in test [2], 0.419 ± 0.0541 mM; in [3], 0.0101 ± 0.0008 mM; in test [4], 1.68 ± 0.299 mM; in [5] it was 0.151 ± 0.0129 mM.

For `O=P(O)(O)OC[C@H]1OC(O)[C@H](O)[C@@H](O)[C@@H]1O` (stereo partly shown) [Glc-6-P], the Ki in test [6] came out at 13.1 ± 2.9 mM; in test [7] it was 14.1 ± 3.9 mM; in test [3] (allosteric Glc-6-P site, with respect to FBP, noncompetitive, Mg2+, pH 7.5, 25 C), 0.8 ± 0.2 mM; in test [8], 21.1 ± 2.9 mM; in [9], 20.4 ± 7.3 mM.

Source of the values: paper PMC3395594, “Rational Engineering of Enzyme Allosteric Regulation through Sequence Evolution Analysis” (PLoS Computational Biology, 2012).
